Reference: PMC8238948, “Potent inhibitors of toxic alpha-synuclein identified via cellular time-resolved FRET biosensors” (NPJ Parkinson's Disease, 2021)
Entries after “also recorded” stand apart in the source; their conditions may differ. Where a name gives a salt, the structure may show the parent alone.

What was measured:
[1] = target: T1, recombinant αSN (Homo sapiens, UniProt P37840); experiment: Non-seeded Thioflavin-T assay (monomer induced aggregation); assay type: biochemical; conditions: 140 μM αSN monomer, 70 μM compound (1:2), 900 RPM, 37 °C
T1 construct: made in house; host or cells: Escherichia coli BL21(DE3), T7-7 plasmid
Experimental: ThT aggregation assays monitor the kinetics and extent of fibril formation due to spontaneous and seeded aggregation[26],[92]–[95]. The cascade of spontaneous αSN fibrillization includes formation and maturation of oligomeric αSN assemblies[96],[97]. Figure 10 presents spontaneous ThT aggregation for αSN(m) (140 µM) with or without hit compounds RO, DEM, and Bay (70 µM; a sub-stoichiometric ratio, 1:2, compound:protein).
Fig. 10 Monomer induced aggregation of αSN (non-seeded Thioflavin-T assay). Recombinant αSN was incubated at 140 μM monomer (70 μM compound) under continuous shaking (900 RPM) at 37 °C. All three hit compounds modulated αSN fibrillization with RO having a more significant effect over Bay and DEM, respectively.
ThT (Sigma, product no. T3516) was dissolved in PBS buffer and was filtered through a 0.2-µm syringe filter to make a stock solution of 2.5 mM. Working ThT concentration was 20 µM. PFF seeds were produced via constant agitation of 1000 RPM at 37 °C (ThermoMixer-C, Eppendorf, Hauppauge, NY) of 500 µL of 350 µM αSN in PBS in a 2 mL tube for 5 days. PFFs were aliquoted and flash frozen and stored at −80 °C until further use. PFF seeds were rapidly thawed, diluted to 35 µM in PBS, and sonicated 120 pulses at 50% using a probe-tip sonicator following the established protocols. Master mix samples for each of the different ThT assays were prepared and dispensed in triplicate as 50 µL in 384-well flat, black-bottom polypropylene plates (PN 781209, Greiner Bio-One) and sealed with fluorescently transparent film. Conditions for non-seeded, seeded, and cell homogenate assays varied slightly.
Non-seeded ThT master mix was prepared in cell culture PBS with 140 µM (2 mg/mL) αSN(m) and dispensed into compound plates at 70 µM final compound concentration (1:2 compound:protein ratio).

[2] = target: T2, intra-protomeric αSN biosensor (GFP-αSN-RFP) in HEK293 cells (Homo sapiens, UniProt P37840); experiment: FRET response on intra-protomeric αSN biosensor; assay type: cell-based; conditions: 10 µM
T2 construct: In addition to full-length αSN fusion constructs, we observe both C-terminally and N-terminally truncated αSN species; expressed in transfected cells; host or cells: HEK293
Experimental: Hits were also evaluated with the intra-protomeric αSN and control, non-specific biosensors. […] The compounds RO, BAY, and DEM as well as the control EGCG each reduced FRET, indicating either reduction in oligomerization or expanded oligomer conformation. Tests of these compounds in two control biosensor systems (GFP/RFP at 1:8 and GFP-linker32-RFP; see Supplementary Fig. 13a, b, respectively) show no significant FRET change.
Fig. 7 FRET response to pilot HTS hits on intra-protomeric αSN biosensor. […] With both donor and acceptor XFP fused to one construct, this biosensor is sensitive to both oligomer formation as well as conformation. […] Experiments were performed with n = 3; *p < 0.05, **p < 0.01, ***p < 0.001, ns indicates no significant difference as determined by Student’s t test.

[3] = tested on: differentiated SH-SY5Y cells treated with sonicated human αSN PFF; experiment: Differentiated SH-SY5Y cell model of αSN PFF pathology (pS129 immunoblot); assay type: cell-based; conditions: 1 μM compound, 200 nM human PFF, 48 h; for total pS129 signal (words): relative to DMSO
Experimental: SH-SY5Y cells were differentiated using reduced serum (3%) media supplemented with 10 μM retinoic acid for 3 days and then changed to serum-free media supplemented with 10 ng/mL brain-derived neurotrophic factor for the remainder of the experiment. Stock αSN PFFs were diluted and sonicated as described previously. SH-SY5Y cultures were then treated with 200 nM PFF and PBS, DMSO, 1 μM drug compound (RO, BAY, or DEM), or 50 μM Baicalin. After 48 h, SH-SY5Y were washed with PBS and harvested in cold lysis buffer with protease and phosphatase inhibitors, as previously described. Approximately 15 μg of total protein was loaded onto a 4–20% Criterion TGX midi gel and probed using Syn1 (BD Biosciences, #610787; 1° 1:5000; 2° 1:10K) and pS^129 aSyn (abcam, ab59264; 1° 1:1000; 2° 1:5000) and a-tubulin (abcam, ab4074; 1° 1:1000; 2° 1:10K) page 19: Supplemental Figure 18. […] Differentiated SH-SY5Y cells were treated with PBS, vehicle (DMSO) or compounds with and without 200nM sonicated human αSN PFFs. […] These will be removed in subsequent densitometry analysis. (b) Replicates of PFF +/- compound treatment were ran for immunoblot analysis of pS129 immunoreactivity. (c) Densitometry analysis was performed using ImageLab from BioRad. Total pS129 signal (excluding the non- specific bands) was normalized to tubulin loading control. […] Quantification is normalized per lane to highlight change in the ratio of different species. Note, oligomers quantification is plotted relative to the right-y- axis. All statistical comparisons were to DMSO treatment using two-tailed t-test with * p<0.05; ** p<0.01; *** p<0.005.

[4] = target: T3, αSN oligomers (Homo sapiens, UniProt P37840); experiment: ThT content (β-sheet) of αSN oligomers after oligomerization assay; assay type: biochemical; conditions: 70 μM compound (1:5 compound:monomer), 12 h oligomerization; vs DMSO
T3 construct: made in house; host or cells: Escherichia coli BL21(DE3), T7-7 plasmid
Experimental: To explore the presence of β-sheet content in these oligomers, an aliquot was removed prior to cross-linking, diluted into 100 μM ThT working solution, and ThT fluorescence was monitored to detect the presence of β-sheet. Supplementary Fig. 22 presents each sample ThT content normalized to the PFF signal. We observed an increased ThT content in the αSN oligomers (αS-O) that was not affected by DMSO (vehicle) treatment.
A 10-μL aliquot from each sample was taken and diluted with 290 μL ThT working solution (100 μM ThT in PBS) and dispensed into 3 wells of a 384-well, black opaque plate. Additional samples of PBS, αSN(m), and αSN PFF were used as controls. Plates were incubated at ambient temperature for 10 min and then fluorescence read at 450ex/490em on a Spectromax-i3x (Molecular Devices).
Supplemental Figure 22. Characterization of β-sheet content in αSN oligomers due to hit compound
After the 12-hour oligomerization assay aliquots of each sample were
removed and diluted in 100μM ThT and fluorescence read in triplicate (450ex/490em) in 384-well plates. The
ThT signal was normalized to a signal from previously frozen αSN PFF aliquots. After completion of the
PFF, green bar) and the ThT signal was not affected by DMSO (red bar). Oligomerization in the presence of
control compounds, EGCG and Baicalin, at 70μM (a sub-stoichiometric,1:5 compound: monomer ratio)
Our hit compounds RO, DEM, and BAY had differential effects with
both DEM and BAY resulting in increased ThT content and RO not producing a significant change relative to
(1 picture or pasted object on this page, not shown here)

ThT signal, spontaneous (non-seeded) aggregation [1]	change in intra-protomeric FRET [2]	ThT signal of αSN oligomers [4]	SMILES	HMW pS129 assemblies [3]	LMW oligomer pS129 fraction [3]	monomeric pS129 fraction [3]	total pS129 signal (words) [3]	total pS129 signal (words) ([3]; listed as Bay)
lesser degrees of attenuation	reduced FRET	increased the ThT signal	COC(=O)C1=C(C)NC(C)=C([N+](=O)[O-])C1c1ccccc1C(F)(F)F (racemic) [BAY, (±)-Bay K 8644]	increase HMW assemblies	not BAY, reduce oligomers	significant reduction	significant increase	increased pS129 signal
lesser degrees of attenuation	reduced FRET	increased the ThT signal	CN(C)[C@@H]1C(O)=C(C(N)=O)C(=O)[C@@]2(O)C(O)=C3C(=O)c4c(O)ccc(Cl)c4[C@@H](O)[C@H]3C[C@@H]12 [DEM, Demeclocycline HCl]	increase HMW assemblies	significantly reduced	significant reduction	non-significant change	–
significant ThT signal reduction	reduced FRET	no effect	Nc1ccc(-c2nc3ccc(-c4nc5ccc(N)cc5[nH]4)cc3[nH]2)cc1 [RO, Ro 90–7501]	increase HMW assemblies	significantly reduced	significant reduction	significant reduction; also recorded: significant decrease	–
